We go through 32 compounds from patent US20240392302A1, “METHOD FOR DETECTING AND QUANTIFYING RNA” (FLUORESCENCE DIAGNOSIS (SHANGHAI) BIOTECH COMPANY LTD., priority 2021, published 2024).

The data set relates to F30-N16-1 RNA aptamer molecules. The experiment in a line: Binding of F30-N16-1 RNA aptamer molecules with different fluorescent molecules (fluorescence spectrum, activation multiple). As to conditions: for Maximum emission peak (nm) / Maximum excitation peak (nm): complex with F30-N16-1; for Activation Multiple: fluorophore with F30-N16-1. It is filed as biochemical. The procedure:
Nucleic acid aptamer molecules of N16 or N16 mutants were prepared by using the commonly-used experimental method (I), 2.5 μM of nucleic acid aptamer molecules and 0.5 μM of fluorophore molecules were incubated in a detection buffer (40 mM of HEPES, pH 7.4, 125 mM of KCl, 5 mM of MgCl2, 5% DMSO), and the maximum excitation peak and the maximum emission peak of the fluorescence of the nucleic acid aptamer-fluorophore molecular complex were detected with Synergy Neo2 multifunctional enzyme-labeler. Synergy Neo2 multifunctional enzyme-labeler was used again to detect fluorescence intensity of the nucleic acid aptamer-fluorophore molecular complex under its maximum excitation and emission conditions, the control sample ([…] of fluorophore molecules without nucleic acid aptamer) was also measured under the same conditions, and the ratio of fluorescence intensity was calculated. For example, as for fluorescence of the complex formed by 2.5 μM of N16-1 nucleic acid aptamer and 0.5 μM of I-5-14 fluorophore molecules, the maximum excitation peak is 512 nm and the maximum emission peak is 574 nm. It was detected by the Synergy Neo2 multifunctional enzyme-labeler that the fluorescence intensity of the complex at an excitation condition of 512±10 nm and an emission condition of 574 nm±10 nm was 49,088, while the fluorescence intensity of the control (0.5 μM of I-5-14 fluorophore molecules) under the same detection conditions was 399, so the activation multiple of N16-1 nucleic acid aptamer to I-5-14 fluorophore molecules was 123.
F30-N16-1 RNA aptamer molecules were prepared by using the commonly-used experimental method (I), and were used for detecting basic properties, including fluorescence spectrum and fluorescence activation multiple, of the binding of I-5-14 analogues with N16.

For `O=C1NC(=S)N/C1=C\c1cc2c3c(c1)CCCN3CCC2` [I-5-50], the “Maximum emission peak (nm)” value is 597 nm, the “Maximum excitation peak (nm)” value is on record as 512 nm and the “Activation Multiple” value was determined as 7.
For the compound `CN(CCO)c1cc2sc(/C=C3\OC(=O)NC3=O)cc2s1` [I-5-55], the “Maximum emission peak (nm)” value turned out to be 627 nm, the “Maximum excitation peak (nm)” value is given as 513 nm and the “Activation Multiple” value worked out at 14.
Regarding `CN(CCO)c1ccc2cc(/C=C3\SC(=S)NC3=S)sc2c1` [I-5-66], the “Maximum emission peak (nm)” value is listed as 748 nm, the “Maximum excitation peak (nm)” value came to 666 nm and the “Activation Multiple” value is 81.
As to `CCN1C(=O)O/C(=C\c2ccc(N(C)CCO)cc2)C1=O` [I-5-13], the “Maximum emission peak (nm)” value was 492 nm, the “Maximum excitation peak (nm)” value was 393 nm and the “Activation Multiple” value was 8.
For `CN(C)c1ccc(/C=C2\SC(=S)N(CCC(=O)O)C2=O)cc1` [I-5-20], the “Maximum emission peak (nm)” value turned out to be 565 nm, the “Maximum excitation peak (nm)” value is recorded as 493 nm and the “Activation Multiple” value is given as 22.
For `CN(CCO)c1ccc(-c2ccc(/C=C3\SC(=S)NC3=O)s2)cc1` [I-5-61], the “Maximum emission peak (nm)” value is 677 nm, the “Maximum excitation peak (nm)” value was 483 nm and the “Activation Multiple” value turned out to be 6.
With `CN(C)c1ccc(/C=C2\SC(=O)NC2=S)cc1` [I-5-21], the “Maximum emission peak (nm)” value was 605 nm, the “Maximum excitation peak (nm)” value was determined as 569 nm and the “Activation Multiple” value is listed as 24.
As to `CN1CCc2cc(/C=C3\SC(=O)NC3=O)ccc21` [I-5-29], the “Maximum emission peak (nm)” value was 525 nm, the “Maximum excitation peak (nm)” value was found to be 453 nm and the “Activation Multiple” value came to 14.
Regarding `Nc1ccc2nc(/C=C3\SC(=S)NC3=S)sc2c1` [I-5-72], the “Maximum emission peak (nm)” value is 721 nm, the “Maximum excitation peak (nm)” value was found to be 636 nm and the “Activation Multiple” value was 14.
Take `CN1C(=O)/C(=C/c2cc3c(s2)-c2sc(N(CCO)CCO)cc2C3(C)C)SC1=S` [I-5-84]: the “Maximum emission peak (nm)” value came out at 737 nm, the “Maximum excitation peak (nm)” value is listed as 685 nm and the “Activation Multiple” value turned out to be 6.
With `CN(CCOC(=O)CCOCCO)c1ccc(/C=C2\SC(=S)NC2=O)c(Br)c1` [I-5-26], the “Maximum emission peak (nm)” value was 567 nm, the “Maximum excitation peak (nm)” value is 497 nm and the “Activation Multiple” value is on record as 21.
The matching figures for `CN(CCNS(C)(=O)=O)c1ccc(/C=C2\SC(=O)NC2=S)s1` [I-5-3]: 580 nm, 550 nm and 14.
With `CN(CCO)c1ccc2nc(/C=C3\NC(=S)NC3=O)sc2c1` [I-5-69], the “Maximum emission peak (nm)” value is 661 nm, the “Maximum excitation peak (nm)” value was determined as 531 nm and the “Activation Multiple” value came out at 11.
Regarding `CN1CCc2cc(/C=C3\NC(=S)NC3=O)c(Cl)cc21` [I-5-30], the “Maximum emission peak (nm)” value turned out to be 562 nm, the “Maximum excitation peak (nm)” value stood at 497 nm and the “Activation Multiple” value is given as 11.
The matching figures for `CCN1C(=O)S/C(=C\c2ccc3c(c2)C(C)=CC(C)(C)N3C)C1=O` [I-5-44]: 549 nm, 459 nm and 21.
The matching figures for `CN(CCO)c1ccc2c(c1)C(C)(C)c1cc(/C=C3\SC(=S)NC3=S)sc1-2` [I-5-78]: 681 nm, 582 nm and 8.
The corresponding values for `CC1=CC(C)(C)N(C)c2ccc(/C=C3\SC(=S)NC3=S)cc21` [I-5-43] are 665 nm, 572 nm and 17.
Consider `CN1C(=O)S/C(=C\c2nc3ccc(N(C)CCO)cc3s2)C1=O` [I-5-71], for which the “Maximum emission peak (nm)” value was found to be 627 nm, the “Maximum excitation peak (nm)” value was 471 nm and the “Activation Multiple” value worked out at 6.
On to `CN(CCO)c1cc2c(s1)-c1sc(/C=C3\SC(=S)NC3=O)cc1C2(C)C` [I-5-83], for which the “Maximum emission peak (nm)” value worked out at 733 nm, the “Maximum excitation peak (nm)” value came out at 685 nm and the “Activation Multiple” value is 4.
The corresponding values for `CN(CCO)c1ccc2c(c1)C(C)(C)c1cc(/C=C3\SC(=S)NC3=O)sc1-2` [I-5-79] are 733 nm, 682 nm and 11.
Turning to `O=C1NC(=S)N/C1=C\c1ccc(N(CCO)CCO)s1` [I-5-6], the “Maximum emission peak (nm)” value was found to be 550 nm, the “Maximum excitation peak (nm)” value is on record as 536 nm and the “Activation Multiple” value came to 23.
The corresponding values for `CN1CCSc2cc(/C=C3\SC(=S)NC3=S)ccc21` [I-5-34] are 659 nm, 547 nm and 11.
`CN(CCO)c1cc2c(s1)-c1sc(/C=C3\NC(=S)N(N)C3=O)cc1C2(C)C` [I-5-81]: the “Maximum emission peak (nm)” value was found to be 713 nm, the “Maximum excitation peak (nm)” value was determined as 635 nm and the “Activation Multiple” value came to 7.
In the case of `CN(C)c1cc2sc(/C=C3\SC(=O)NC3=O)cc2s1` [I-5-53], the “Maximum emission peak (nm)” value came out at 593 nm, the “Maximum excitation peak (nm)” value is 518 nm and the “Activation Multiple” value amounted to 1281.
Take `CN(CCO)c1ccc2c(c1)C(C)(C)c1cc(/C=C3\NC(=S)NC3=O)sc1-2` [I-5-77]: the “Maximum emission peak (nm)” value worked out at 783 nm, the “Maximum excitation peak (nm)” value was determined as 736 nm and the “Activation Multiple” value was 5.
The matching figures for `CN(C)c1ccc(/C=C2\SC(=S)N(N)C2=O)s1` [I-5-9]: 578 nm, 552 nm and 17.
Turning to `CN(CCO)c1cc2c(s1)-c1sc(/C=C3\SC(=S)NC3=S)cc1C2(C)C` [I-5-82], the “Maximum emission peak (nm)” value was found to be 801 nm, the “Maximum excitation peak (nm)” value came out at 748 nm and the “Activation Multiple” value is 3.
Regarding `CC1=CC(C)(C)N(C)c2ccc(/C=C3\SC(=O)NC3=S)cc21` [I-5-42], the “Maximum emission peak (nm)” value stood at 627 nm, the “Maximum excitation peak (nm)” value worked out at 527 nm and the “Activation Multiple” value came out at 11.
Regarding `CN1C(=O)S/C(=C\c2ccc3c(c2)SCCN3C)C1=S` [I-5-32], the “Maximum emission peak (nm)” value stood at 625 nm, the “Maximum excitation peak (nm)” value is reported as 519 nm and the “Activation Multiple” value amounted to 15.
The corresponding values for `S=C1NC(=S)/C(=C/c2cc3c4c(c2)CCCN4CCC3)S1` [I-5-48] are 675 nm, 579 nm and 6.
The matching figures for `CN(CCO)c1ccc(/C=C2\SC(=O)NC2=S)cc1` [I-5-15]: 598 nm, 567 nm and 31.
Regarding `CC1=CC(C)(C)N(C)c2ccc(/C=C3\NC(=S)NC3=O)cc21` [I-5-45], the “Maximum emission peak (nm)” value is listed as 595 nm, the “Maximum excitation peak (nm)” value is given as 497 nm and the “Activation Multiple” value is 11.
